The values below come from patent US10568879B2 (GALAPAGOS NV, priority 2015, dated 2020).

One assay deals with T1, GPR84 (Homo sapiens, UniProt Q9NQS5).
T1 construct: expressed in transfected cells
Description: GPR84 [35S]GTPγS binding assay. It counts as biochemical. The note with it: 3,3′-diindolylmethane at EC80; membranes from stable cell line over expressing GPR84. The method, boiled down:
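Antagonist-mode [35S]GTPγS binding on membranes from a GPR84-overexpressing stable line (GDP-preincubated), stimulated with 3,3′-diindolylmethane at EC80. Buffer 20 mM Tris pH 7.5, 5 mM MgCl2, 250 mM NaCl, saponin; 0.1 nM [35S]GTPγS, 90 min at room temperature, SPA bead read-out.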
(GTPγS resists hydrolysis and so accumulates on activated G proteins.)

The subject of another assay is human neutrophils. Briefly: Human neutrophil migration assay. The class given is cell-based. The note with it: Homo sapiens, Neutrophil, read-out: Human neutrophil migration IC50. The method, then:
The activity of GPR84 agonists and antagonists can therefore be assayed in a human neutrophil migration assay. The human neutrophil migration assay makes use of freshly isolated human neutrophils from buffy coats that are subsequently used in a functional chemotaxis assay setup. […] After 1 h of incubation at 37° C. and 5% CO2, the number of migrated neutrophils in the lower compartment can be quantified by measuring the ATP content using ATPlite™ Luminescence Assay System. A human buffy coat suspension is diluted with an equal volume of ice cold DPBS. 20 mL of the diluted buffy coat suspension is gently mixed with 4 mL of ACD buffer (140 mM citric acid, 200 mM sodium citrate and 220 mM dextrose). Then, 12 mL of a 6% dextran/0.9% NaCl solution (15 g dextran T2000 and 2.25 g NaCl dissolved in 250 mL H2O) is added to the mixture and the samples are inverted gently up to 20 times. The total volume is transferred to a new recipient and incubated at room temperature to allow sedimentation of red blood cells. The yellowish upper fraction is then transferred to a clean centrifugation tube and centrifuged for 12 min at 1300 rpm and 4° C. After centrifugation, the supernatant is discarded and the remaining cell pellet is rapidly resuspended in 12 mL of ice-cold H2O to perform a red blood cell lysis by osmotic burst. After 20 seconds, 4 mL of ice-cold 0.6 M KCl is added to restore salt concentration. Samples are mixed carefully and centrifuged for 6 min at 1300 rpm and 4° C. The supernatant is discarded and the red blood cell lysis procedure is repeated one more time. […] A neutrophil cell suspension of 8.9×10^6 cells per mL is prepared in chemotaxis buffer and 180 μL per well is plated in a 96-well V-bottom plate. 20 μL of test compound solution in chemotaxis buffer is added to the 180 μL cell suspension. The mixture is incubated at room temperature for 30 min with intermediate gentle resuspension of the cells after 15 min. […] After 1 h at 37° C., 5% CO2 in a humidified incubator, the upper plate of the Transwell® system is gently removed. […] After incubation, 270 μL of cell lysate is then transferred onto a white 96-well plate for quantification by a luminescence plate reader. The relative luminescent signal measured is considered linearly related to the number of cells having migrated from the upper compartment into the receiver well.

Where [1] appears, read: embelin at EC80 as chemotactic agent, 1 h at 37° C.

SMILES strings stand for the structures. Read-outs that look alike come from different tables or passages of the source.

T1 sequence (Q9NQS5 whole entry): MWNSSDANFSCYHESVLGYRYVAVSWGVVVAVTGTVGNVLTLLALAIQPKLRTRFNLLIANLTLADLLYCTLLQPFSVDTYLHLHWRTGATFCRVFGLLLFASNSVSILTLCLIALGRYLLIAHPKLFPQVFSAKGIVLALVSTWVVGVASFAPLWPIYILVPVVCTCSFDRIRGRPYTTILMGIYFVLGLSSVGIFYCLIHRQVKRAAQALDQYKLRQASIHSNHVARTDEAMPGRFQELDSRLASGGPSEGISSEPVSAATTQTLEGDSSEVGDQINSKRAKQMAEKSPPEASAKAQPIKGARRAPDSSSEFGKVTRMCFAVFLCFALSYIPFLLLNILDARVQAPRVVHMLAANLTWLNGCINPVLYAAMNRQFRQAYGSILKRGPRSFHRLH

On to `Cc1c2n(c(NCC3CCCCO3)cc1=O)CCc1cc(OCC(F)(F)F)ccc1-2` (centres unmarked) [Compound 14, 1-methyl-4-(tetrahydropyran-2-ylmethylamino)-9-(2,2,2-trifluoroethoxy)-6,7-dihydrobenzo[a]quinolizin-2-one], for which the IC50 at GPR84 and with human neutrophils (setting [1]) was 0.01 to 100 nM throughout.

As for `COc1ccc2c(c1OC)CCn1c(NCC3CCCCO3)cc(=O)c(C)c1-2` (centres unmarked) [Compound 16, 8,9-dimethoxy-1-methyl-4-(tetrahydropyran-2-ylmethylamino)-6,7-dihydrobenzo[a]quinolizin-2-one], the IC50 at GPR84 was 0.01 to 100 nM; in the assay on human neutrophils (setting [1]) it was 100 to 500 nM.

For `COc1ccc2c(c1OC)CCn1c(NCC3COCCO3)cc(=O)c(C)c1-2` (centres unmarked) [Compound 17, 4-(1,4-dioxan-2-ylmethylamino)-8,9-dimethoxy-1-methyl-6,7-dihydrobenzo[a]quinolizin-2-one], the IC50 lay within 0.01 to 100 nM at GPR84 and 100 to 500 nM in the assay with human neutrophils (setting [1]).

In the case of `COc1ccc2c(c1OC)CCn1c(NCC3COCCO3)cc(=O)cc1-2` (centres unmarked) [Compound 19, 4-(1,4-dioxan-2-ylmethylamino)-8,9-dimethoxy-6,7-dihydrobenzo[a]quinolizin-2-one], the IC50 was 500 to 1000 nM on GPR84 and greater than 1000 nM in the assay with human neutrophils (setting [1]).

With `COc1ccc2c(c1OC)CCn1c(NCC3CCCO3)cc(=O)cc1-2` (centres unmarked) [Compound 20, 8,9-dimethoxy-4-(tetrahydrofuran-2-ylmethylamino)-6,7-dihydrobenzo[a]quinolizin-2-one], the IC50 on GPR84 and in the assay with human neutrophils (setting [1]) was greater than 1000 nM in each case.

Turning to `COc1c(O)ccc2c1CCn1c(NCC3COCCO3)cc(=O)cc1-2` (centres unmarked) [Compound 21, 4-(1,4-dioxan-2-ylmethylamino)-9-hydroxy-8-methoxy-6,7-dihydrobenzo[a]quinolizin-2-one], the IC50 on GPR84 and with human neutrophils (setting [1]) was greater than 1000 nM each time.

Turning to `COc1ccc2c(c1O)CCn1c(NCC3COCCO3)cc(=O)cc1-2` (centres unmarked) [Compound 22, 4-(1,4-dioxan-2-ylmethylamino)-8-hydroxy-9-methoxy-6,7-dihydrobenzo[a]quinolizin-2-one], the IC50 at GPR84 and in the assay on human neutrophils (setting [1]) was greater than 1000 nM throughout.

With `COc1c(OCC(F)F)ccc2c1CCn1c(NCC3COCCO3)cc(=O)c(C)c1-2` (centres unmarked) [Compound 23, 9-(2,2-Difluoro-ethoxy)-4-[([1,4]dioxan-2-ylmethyl)-amino]-8-methoxy-1-methyl-6,7-dihydro-pyrido[2,1-a]isoquinolin-2-one], the IC50 on GPR84 and with human neutrophils (1 h) was 0.01 to 100 nM in each case.

For `COc1c(OCC(F)F)ccc2c1CCn1c(NCC3CCCO3)cc(=O)c(C)c1-2` (centres unmarked) [Compound 24, 9-(2,2-Difluoro-ethoxy)-8-methoxy-1-methyl-4-[(tetrahydro-furan-2-ylmethyl)-amino]-6,7-dihydro-pyrido[2,1-a]isoquinolin-2-one], the IC50 on GPR84 fell in the range of 0.01 to 100 nM; in the assay on human neutrophils (setting [1]), 100 to 500 nM.

As to `Cc1c2n(c(OC[C@@H]3COCCO3)cc1=O)CCc1cc(C#N)ccc1-2` [Compound 25, 4-[[(1S)-1,4-dioxan-2-yl]methoxy]-1-methyl-2-oxo-6,7-dihydrobenzo[a]quinolizine-9-carbonitrile], the IC50 is 500 to 1000 nM on GPR84 and greater than 1000 nM in the assay on human neutrophils (setting [1]).

In the case of `CCc1c2n(c(NCC3CCCO3)cc1=O)CCc1cc(OCC(F)F)ccc1-2` (centres unmarked) [Compound 26, 9-(2,2-difluoroethoxy)-1-ethyl-4-(tetrahydrofuran-2-ylmethylamino)-6,7-dihydrobenzo[a]quinolizin-2-one], the IC50 at GPR84 and with human neutrophils (setting [1]) was 500 to 1000 nM throughout.

`CCc1c2n(c(NCC3CCCO3)cc1=O)CCc1cc(OCC(F)(F)F)ccc1-2` (centres unmarked) [Compound 27, 1-ethyl-4-(tetrahydrofuran-2-ylmethylamino)-9-(2,2,2-trifluoroethoxy)-6,7-dihydrobenzo[a]quinolizin-2-one]: the IC50 is 500 to 1000 nM on GPR84 and 100 to 500 nM in the assay with human neutrophils (setting [1]).

`COc1ccc2c(c1OC)CCn1c(OCC3CCCO3)cc(=O)c(C)c1-2` (centres unmarked) [Compound 28, 8,9-dimethoxy-1-methyl-4-(tetrahydrofuran-2-ylmethoxy)-6,7-dihydrobenzo[b]quinolizin-2-one]: the IC50 on GPR84 and in the assay on human neutrophils (setting [1]) was 0.01 to 100 nM each time.

With `COc1ccc2c(c1OC)CCn1c(OCC3CCCCO3)cc(=O)c(C)c1-2` (centres unmarked) [Compound 29, 8,9-dimethoxy-1-methyl-4-(tetrahydropyran-2-ylmethoxy)-6,7-dihydrobenzo[b]quinolizin-2-one], the IC50 at GPR84 and in the assay with human neutrophils (setting [1]) was 0.01 to 100 nM throughout.

As for `Cc1c2n(c(OC[C@@H]3COCCO3)cc1=O)CCc1cc(OCC3CCOCC3)ccc1-2` [Compound 30, 4-[[(2S)-1,4-dioxan-2-yl]methoxy]-1-methyl-9-(tetrahydropyran-4-ylmethoxy)-6,7-dihydrobenzo[b]quinolizin-2-one], the IC50 on GPR84 and in the assay on human neutrophils (setting [1]) was 0.01 to 100 nM each time.

In the case of `Cc1c2n(c(OC[C@@H]3COCCO3)cc1=O)CCc1cc(OCc3ccccn3)ccc1-2` [Compound 31, 4-[[(2S)-1,4-dioxan-2-yl]methoxy]-1-methyl-9-(2-pyridylmethoxy)-6,7-dihydrobenzo[b]quinolizin-2-one], the IC50 on GPR84 and in the assay with human neutrophils (setting [1]) was 0.01 to 100 nM throughout.

With `Cc1c2n(c(OC[C@@H]3COCCO3)cc1=O)CCc1cc(OCc3cccc(OC(F)(F)F)c3)ccc1-2` [Compound 32, 4-[[(2S)-1,4-dioxan-2-yl]methoxy]-1-methyl-9-[[3-(trifluoromethoxy)phenyl]methoxy]-6,7-dihydrobenzo[a]quinolizin-2-one], the IC50 at GPR84 and in the assay with human neutrophils (setting [1]) was 0.01 to 100 nM throughout.

On to `Cc1c2n(c(OC[C@@H]3COCCO3)cc1=O)CCc1cc(OCc3ccccc3)ccc1-2` [Compound 33, 9-benzyloxy-4-[[(2S)-1,4-dioxan-2-yl]methoxy]-1-methyl-6,7-dihydrobenzo[a]quinolizin-2-one], for which the IC50 at GPR84 and in the assay with human neutrophils (setting [1]) was 0.01 to 100 nM throughout.

For `Cc1c2n(c(NC[C@@H]3COCCO3)cc1=O)CCc1cc(OCC(F)F)ccc1-2` [Compound 35, 9-(2,2-difluoroethoxy)-4-[[(2R)-1,4-dioxan-2-yl]methylamino]-1-methyl-6,7-dihydrobenzo[b]quinolizin-2-one], the IC50 at GPR84 lay within 100 to 500 nM; with human neutrophils (setting [1]) it was 0.01 to 100 nM.

Consider `Cc1c2n(c(NC[C@@H]3COCCO3)cc1=O)CCc1cc(OCC(F)(F)F)ccc1-2` [Compound 36, 4-[[(2R)-1,4-dioxan-2-yl]methylamino]-1-mehtyl-9-(2,2,2-trifluoroethoxy)-6,7-dihydrobenzo[a]quinolizin-2-one], for which the IC50 was in the range of 0.01 to 100 nM at GPR84 and 100 to 500 nM with human neutrophils (setting [1]).

Turning to `Cc1c2n(c(OC[C@@H]3COCCO3)cc1=O)CCc1cc(OS(=O)(=O)C(F)(F)F)ccc1-2` [Compound 37, [4-[[(2S)-1,4-dioxan-2-yl]methoxy]-1-methyl-2-oxo-6,7-dihydrobenzo[a]quinolizin-9-yl] trifluoromethanesulfonate], the IC50 at GPR84 and in the assay on human neutrophils (setting [1]) was 0.01 to 100 nM in each case.

As for `Cc1c2n(c(OC[C@@H]3COCCO3)cc1=O)CCc1cc(OCc3cnn(C)c3)ccc1-2` [Compound 38, 4-[[(2S)-1,4-dioxan-2-yl]methoxy]-1-methyl-9-[(1-methylpyrazol-4-yl)methoxy]-6,7-dihydrobenzo[a]quinolizin-2-one], the IC50 fell in the range of 0.01 to 100 nM at GPR84 and 100 to 500 nM with human neutrophils (setting [1]).
